Source: US20170273922A1, “UREA AND BIS-UREA BASED COMPOUNDS AND ANALOGUES THEREOF USEFUL IN THE TREATMENT OF ANDROGEN RECEPTOR MEDIATED DISEASES OR DISORDERS” (THE ROYAL INSTITUTION FOR THE ADVACEMENT OF LEARNING/MCGILL …, priority 2014, published 2017)
Entries after “also recorded” stand apart in the source; their conditions may differ.

Key:
[1] = target: T1, glucocorticoid receptor (GR) (Homo sapiens, UniProt P04150); assay: GR MMTV-luc reporter assay in PC3 cells; format: cell-based; parameters: interference with transcriptional activity of GR: dose or concentration left out as unconfirmed; conditions: for effect on GR transcriptional activation induced by DEX (MMTV-luc): 10 nM DEX, 24 h; for agonism of GR (MMTV-luc): absence of DEX
T1 construct: PC3 cells express endogenous GR; endogenous in cells; host or cells: PC3
T1 sequence (P04150 1-777): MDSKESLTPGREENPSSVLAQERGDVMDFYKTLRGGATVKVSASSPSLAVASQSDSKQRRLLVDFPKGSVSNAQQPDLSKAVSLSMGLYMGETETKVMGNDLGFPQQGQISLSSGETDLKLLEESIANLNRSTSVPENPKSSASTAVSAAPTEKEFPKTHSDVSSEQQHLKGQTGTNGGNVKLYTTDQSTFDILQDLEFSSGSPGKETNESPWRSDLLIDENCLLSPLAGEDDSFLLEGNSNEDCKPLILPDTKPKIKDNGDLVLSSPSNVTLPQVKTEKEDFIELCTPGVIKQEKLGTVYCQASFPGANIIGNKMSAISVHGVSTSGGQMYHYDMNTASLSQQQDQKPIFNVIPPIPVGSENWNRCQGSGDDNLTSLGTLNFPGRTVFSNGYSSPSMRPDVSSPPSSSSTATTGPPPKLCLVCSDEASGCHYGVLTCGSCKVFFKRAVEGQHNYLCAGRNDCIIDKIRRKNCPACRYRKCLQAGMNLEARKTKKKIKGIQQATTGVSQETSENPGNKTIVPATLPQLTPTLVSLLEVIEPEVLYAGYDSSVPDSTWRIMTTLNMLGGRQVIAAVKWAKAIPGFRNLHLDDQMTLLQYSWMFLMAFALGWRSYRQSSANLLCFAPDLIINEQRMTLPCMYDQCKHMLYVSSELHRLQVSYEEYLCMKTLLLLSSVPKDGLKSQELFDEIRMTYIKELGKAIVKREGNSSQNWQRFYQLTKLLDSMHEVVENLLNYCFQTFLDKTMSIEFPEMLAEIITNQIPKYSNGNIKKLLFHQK
Description: A) PC3 cells express endogenous GR. MMTV-Luc and pRL-TK were transiently co-transfected into PC3 cells.
AR and GR are close homology proteins and both of them belong to steroid receptor family. […] MMTV-luc reporter and pRL-TK plasmids were transiently co-transfected into PC3 cells, which endogenously express GR. […] DEX is an agonist of the GR.

AR-v7 = target: T2, AR-v7 (Homo sapiens, UniProt P10275); assay: AR-v7-dependent PSA-luc reporter assay in HEK293 cells; conditions: for potency relative to EPI-001 at 25 μM in suppressing constitutive activation of wild-type AR-v7: compounds at 2.5 μM
T2 sequence (P10275 1-644 isoform P10275-3): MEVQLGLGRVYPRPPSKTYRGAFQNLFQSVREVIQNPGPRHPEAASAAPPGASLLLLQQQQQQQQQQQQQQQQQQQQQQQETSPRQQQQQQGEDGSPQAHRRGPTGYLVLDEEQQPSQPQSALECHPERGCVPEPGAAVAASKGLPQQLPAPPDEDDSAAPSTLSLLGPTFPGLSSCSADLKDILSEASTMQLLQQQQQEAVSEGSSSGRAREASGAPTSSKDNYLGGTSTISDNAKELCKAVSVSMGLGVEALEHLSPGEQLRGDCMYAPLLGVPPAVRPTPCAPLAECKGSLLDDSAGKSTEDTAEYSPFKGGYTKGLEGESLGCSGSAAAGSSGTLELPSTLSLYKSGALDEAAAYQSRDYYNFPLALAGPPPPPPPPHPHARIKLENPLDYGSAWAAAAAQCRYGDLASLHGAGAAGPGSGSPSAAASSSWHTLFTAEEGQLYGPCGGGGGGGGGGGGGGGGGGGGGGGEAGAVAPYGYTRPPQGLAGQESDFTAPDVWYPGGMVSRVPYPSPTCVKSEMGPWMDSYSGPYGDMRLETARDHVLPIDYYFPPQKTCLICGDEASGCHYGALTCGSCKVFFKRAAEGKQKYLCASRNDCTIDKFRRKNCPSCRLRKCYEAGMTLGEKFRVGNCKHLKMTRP
Experimental: Cells were exposed to vehicle control or compounds at designated concentrations (μM) for 48 h.

[2] = target: T3, endogenous AR T877A mutant in LNCaP cells (Homo sapiens, UniProt P10275, T878A); assay: PSA-luc reporter assay in LNCaP cells (endogenous AR T877A mutant); format: cell-based
T3 construct: LNCaP cells, which express endogenous AR T877A mutant; endogenous in cells; host or cells: LNCaP
T3 sequence (P10275 1-920 T878A): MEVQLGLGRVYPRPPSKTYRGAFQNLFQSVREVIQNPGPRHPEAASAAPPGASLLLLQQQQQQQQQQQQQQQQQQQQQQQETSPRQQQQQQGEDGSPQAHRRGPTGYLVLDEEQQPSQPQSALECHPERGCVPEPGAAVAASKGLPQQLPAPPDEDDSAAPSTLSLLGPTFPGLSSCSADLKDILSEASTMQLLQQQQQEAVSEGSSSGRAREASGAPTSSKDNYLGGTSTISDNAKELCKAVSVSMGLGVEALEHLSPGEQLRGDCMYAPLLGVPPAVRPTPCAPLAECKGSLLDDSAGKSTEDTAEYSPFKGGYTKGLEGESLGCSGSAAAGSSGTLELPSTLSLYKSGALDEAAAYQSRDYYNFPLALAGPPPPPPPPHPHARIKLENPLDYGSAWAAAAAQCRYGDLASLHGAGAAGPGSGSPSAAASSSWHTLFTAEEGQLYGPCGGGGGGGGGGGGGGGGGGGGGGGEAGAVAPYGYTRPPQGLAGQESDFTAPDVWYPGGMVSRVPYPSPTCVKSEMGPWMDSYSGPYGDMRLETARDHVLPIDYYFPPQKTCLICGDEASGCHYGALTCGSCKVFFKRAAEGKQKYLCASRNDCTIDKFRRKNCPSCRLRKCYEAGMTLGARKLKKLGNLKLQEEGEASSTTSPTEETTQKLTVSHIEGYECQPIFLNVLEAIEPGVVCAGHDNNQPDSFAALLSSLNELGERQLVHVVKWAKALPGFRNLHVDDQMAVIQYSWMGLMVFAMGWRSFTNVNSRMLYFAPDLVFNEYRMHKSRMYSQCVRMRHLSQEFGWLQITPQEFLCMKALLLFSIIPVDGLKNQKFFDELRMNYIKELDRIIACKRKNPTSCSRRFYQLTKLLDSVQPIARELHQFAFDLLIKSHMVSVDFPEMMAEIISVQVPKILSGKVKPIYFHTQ
Experimental: Experiments were in duplicate and repeated three times. […] LNCaP cells in whole medium were exposed to DMSO vehicle control or compounds for 24 h.

SMILES	interference with transcriptional activity of GR [1]	inhibition of constitutive activation of AR-v7 (PSA-luc) (AR-v7; 2.5 μM)	potency relative to EPI-001 at 25 μM in suppressing constitutive activation of wild-type AR-v7 (AR-v7)	IC50 ([2]; FIG. 11) [nM]	effect on GR transcriptional activation induced by DEX (MMTV-luc) ([1]; PC3 cells)	suppression of GR transactivation induced by 10 nM DEX ([1]; 5 μM, PC3 cells)	agonism of GR (MMTV-luc) ([1]; 5 μM)	inhibition of constitutive activation of AR-v7 (PSA-luc) (AR-v7; 24 h)	agonism of GR (MMTV-luc) ([1]; PC3 cells)	inhibition of DHT-induced activation of endogenous AR in LNCaP cells (PSA-luc) ([2]; 24 h)	effect of increasing DHT from 1 nM to 10 nM on inhibitory activity in LNCaP cells ([2]; PSA-luc, 24 h)	inhibitory activity compared with EPI at 25 μM (FIG. 11) ([2]; compound at 2.5 μM)
N#Cc1ccc(NC(=O)Nc2cccc(C(F)(F)F)c2)cc1Cl [Compound 492]	–	–	–	–	inactive	inactive	non-agonist	inhibited	–	–	–	–
O=C(Nc1cccc(C(F)(F)F)c1)Nc1ccc([N+](=O)[O-])c(C(F)(F)F)c1 [Compound 442]	–	–	–	–	inactive	inactive	non-agonist	inhibited	non-agonist	potently inhibit; also recorded: suppressed	not competed out	–
N#Cc1ccc(NC(=O)Nc2cccc(C(F)(F)F)c2)cc1C(F)(F)F [Compound 467]	–	–	–	–	inactive	inactive	non-agonist	inhibited	non-agonist	potently inhibit; also recorded: suppressed	–	–
O=C(N/C=C/c1cccc(C(F)(F)F)c1)Nc1ccncn1 [Compound 562]	do not interfere	inhibit	more potent than EPI-001 at 25 μM	~1000	do not interfere; also recorded: selective towards the AR	–	–	dose-dependently inhibit	–	suppressed; also recorded: potently inhibited; also recorded: good activity	–	–

Continued, in another order:

interference with transcriptional activity of GR [1]	inhibition of constitutive activation of AR-v7 (PSA-luc) (AR-v7; 2.5 μM)	potency relative to EPI-001 at 25 μM in suppressing constitutive activation of wild-type AR-v7 (AR-v7)	IC50 ([2]; FIG. 11) [nM]	SMILES	effect on GR transcriptional activation induced by DEX (MMTV-luc) ([1]; PC3 cells)	suppression of GR transactivation induced by 10 nM DEX ([1]; 5 μM, PC3 cells)	agonism of GR (MMTV-luc) ([1]; 5 μM)	inhibition of constitutive activation of AR-v7 (PSA-luc) (AR-v7; 24 h)	agonism of GR (MMTV-luc) ([1]; PC3 cells)	inhibition of DHT-induced activation of endogenous AR in LNCaP cells (PSA-luc) ([2]; 24 h)	effect of increasing DHT from 1 nM to 10 nM on inhibitory activity in LNCaP cells ([2]; PSA-luc, 24 h)	inhibitory activity compared with EPI at 25 μM (FIG. 11) ([2]; compound at 2.5 μM)
do not interfere	inhibit	more potent than EPI-001 at 25 μM	–	O=C(Nc1ccc(Br)nc1)Nc1cc(C(F)(F)F)cc(C(F)(F)F)c1 [Compound 566]	do not interfere	–	–	–	–	–	–	–
do not interfere	inhibit	–	–	O=C(Nc1cccc(C(F)(F)F)c1)Nc1ccc(NC(=O)c2ccccc2F)c(C(F)(F)F)c1 [Compound 746]	do not interfere; also recorded: selective towards the AR	–	–	dose-dependently inhibit	–	suppressed; also recorded: potently inhibited; also recorded: good activity	–	greater inhibitory activity than EPI at 25 μM
